Key:
Hepatotoxicity [1] = system: Hepatotoxicity;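 on HepSE bilirubinemia: bilirubinemia hepatic side effect score drawn from the DILIps training data, a prediction system for drug-induced liver injury; call rule not given here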;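 on HepSE cholecystitis: Cholecystitis-related hepatic side effect score drawn from the DILIps (drug-induced liver injury prediction) training data set; call rule not given here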;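 on HepSE cholelithiasis: hepatic side effect score for cholelithiasis, drawn from the DILIps training data for predicting drug-induced liver injury; call rule not given here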;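 on HepSE cirrhosis: cirrhosis hepatic side effect score taken from the DILIps (drug-induced liver injury prediction) training set; call rule not given here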;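 on HepSE elevated liver function tests: hepatic side effect score for raised liver function tests, as recorded in the DILIps training set used for predicting drug-induced liver injury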; on HepSE hepatic failure: call rule not given here;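 on HepSE hepatomegaly: hepatic side effect score for hepatomegaly, taken from the training set of the DILIps drug-induced liver injury prediction system; call rule not given here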
Hepatotoxicity [2] = system: Hepatotoxicity; remark: listed apart in the source;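 on HepSE bilirubinemia: bilirubinemia hepatic side effect score drawn from the DILIps training data, a prediction system for drug-induced liver injury; call rule not given here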;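 on HepSE cholecystitis: Cholecystitis-related hepatic side effect score drawn from the DILIps (drug-induced liver injury prediction) training data set; call rule not given here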;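 on HepSE cholelithiasis: hepatic side effect score for cholelithiasis, drawn from the DILIps training data for predicting drug-induced liver injury; call rule not given here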;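 on HepSE cirrhosis: cirrhosis hepatic side effect score taken from the DILIps (drug-induced liver injury prediction) training set; call rule not given here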;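 on HepSE elevated liver function tests: hepatic side effect score for raised liver function tests, as recorded in the DILIps training set used for predicting drug-induced liver injury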; on HepSE hepatic failure: call rule not given here;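 on HepSE hepatomegaly: hepatic side effect score for hepatomegaly, taken from the training set of the DILIps drug-induced liver injury prediction system; call rule not given here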
Hepatotoxicity [3] = system: Hepatotoxicity; remark: listed apart in the source;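 on HepSE bilirubinemia: bilirubinemia hepatic side effect score drawn from the DILIps training data, a prediction system for drug-induced liver injury; call rule not given here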;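 on HepSE cholecystitis: Cholecystitis-related hepatic side effect score drawn from the DILIps (drug-induced liver injury prediction) training data set; call rule not given here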;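 on HepSE cholelithiasis: hepatic side effect score for cholelithiasis, drawn from the DILIps training data for predicting drug-induced liver injury; call rule not given here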;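 on HepSE cirrhosis: cirrhosis hepatic side effect score taken from the DILIps (drug-induced liver injury prediction) training set; call rule not given here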;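 on HepSE elevated liver function tests: hepatic side effect score for raised liver function tests, as recorded in the DILIps training set used for predicting drug-induced liver injury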; on HepSE hepatic failure: call rule not given here
Hepatotoxicity [4] = system: Hepatotoxicity; remark: listed apart in the source;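 on HepSE bilirubinemia: bilirubinemia hepatic side effect score drawn from the DILIps training data, a prediction system for drug-induced liver injury; call rule not given here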;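 on HepSE cholecystitis: Cholecystitis-related hepatic side effect score drawn from the DILIps (drug-induced liver injury prediction) training data set; call rule not given here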;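 on HepSE cholelithiasis: hepatic side effect score for cholelithiasis, drawn from the DILIps training data for predicting drug-induced liver injury; call rule not given here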;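 on HepSE cirrhosis: cirrhosis hepatic side effect score taken from the DILIps (drug-induced liver injury prediction) training set; call rule not given here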;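 on HepSE elevated liver function tests: hepatic side effect score for raised liver function tests, as recorded in the DILIps training set used for predicting drug-induced liver injury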; on HepSE hepatic failure: call rule not given here
Hepatotoxicity [5] = system: Hepatotoxicity; remark: listed apart in the source; on HepSE hepatic failure: call rule not given here
Hepatotoxicity [6] = system: Hepatotoxicity; remark: listed apart in the source; on HepSE hepatic failure: call rule not given here
Hepatotoxicity [7] = system: Hepatotoxicity; remark: listed apart in the source
Hepatotoxicity [8] = system: Hepatotoxicity; remark: listed apart in the source
Hepatotoxicity [9] = system: Hepatotoxicity; remark: listed apart in the source
Hepatotoxicity [10] = system: Hepatotoxicity; remark: listed apart in the source
Hepatotoxicity [11] = system: Hepatotoxicity; remark: listed apart in the source
Hepatotoxicity [12] = system: Hepatotoxicity; remark: listed apart in the source
Hepatotoxicity [13] = system: Hepatotoxicity; remark: listed apart in the source
Hepatotoxicity [14] = system: Hepatotoxicity; remark: listed apart in the source

| Compound | HepSE_bilirubinemia (Hepatotoxicity [1]) | HepSE_cholecystitis (Hepatotoxicity [2]) | HepSE_cholelithiasis (Hepatotoxicity [3]) | HepSE_cirrhosis (Hepatotoxicity [4]) | HepSE_elevated liver function tests (Hepatotoxicity [5]) | HepSE_hepatic failure (Hepatotoxicity [6]) | HepSE_hepatic necrosis (Hepatotoxicity [7]) | HepSE_hepatitis (Hepatotoxicity [8]) | HepSE_hepatomegaly (Hepatotoxicity [9]) | HepSE_jaundice (Hepatotoxicity [10]) | HepSE_liver disease (Hepatotoxicity [11]) | HepSE_liver fatty (Hepatotoxicity [12]) | HepSE_liver function tests abnormal (Hepatotoxicity [13]) | HepSE_Combined Scores (Hepatotoxicity [14]) | other results |
| --- | --- | --- | --- | --- | --- | --- | --- | --- | --- | --- | --- | --- | --- | --- | --- |
| Oc1ccc(OCc2ccccc2)cc1 [MONOBENZONE] | 0 | 0 | 0 | 0 | 0 | 0 | 0 | 0 | 0 | 0 | 0 | 0 | 0 | 0 |  |
| CC(C)(O)c1ccccc1CC[C@@H](SCC1(CC(=O)O)CC1)c1cccc(/C=C/c2ccc3ccc(Cl)cc3n2)c1 [MONTELUKAST] | 0 | 0 | 0 | 0 | 0 | 0 | 0 | 1 | 0 | 0 | 1 | 0 | 0 | 2 |  |
| CCOC(=O)Nc1ccc2c(c1)N(C(=O)CCN1CCOCC1)c1ccccc1S2 [MORICIZINE] | 0 | 0 | 0 | 0 | 0 | 0 | 0 | 1 | 0 | 1 | 0 | 0 | 0 | 2 |  |
| COc1c(N2C[C@@H]3CCCN[C@@H]3C2)c(F)cc2c(=O)c(C(=O)O)cn(C3CC3)c12 [MOXIFLOXACIN] | 1 | 0 | 0 | 0 | 0 | 1 | 0 | 1 | 0 | 1 | 0 | 0 | 1 | 5 |  |
| C/C(=C\C(=O)OCCCCCCCCC(=O)O)C[C@@H]1OC[C@H](C[C@@H]2O[C@H]2[C@@H](C)[C@H](C)O)[C@@H](O)[C@H]1O [MUPIROCIN] | 0 | 0 | 0 | 0 | 0 | 0 | 0 | 0 | 0 | 0 | 0 | 0 | 0 | 0 |  |
| COc1c(C)c2c(c(O)c1C/C=C(\C)CCC(=O)O)C(=O)OC2 [MYCOPHENOLIC ACID] | 1 | 0 | 0 | 0 | 0 | 0 | 0 | 1 | 0 | 1 | 1 | 0 | 1 | 5 |  |
| CCCCCCC(C)(C)c1cc(O)c2c(c1)OC(C)(C)C1CCC(=O)CC21 (stereo not drawn) [NABILONE] | 0 | 0 | 0 | 0 | 0 | 0 | 0 | 0 | 0 | 0 | 0 | 0 | 0 | 0 |  |
| COc1ccc2cc(CCC(C)=O)ccc2c1 [NABUMETONE] | 0 | 0 | 0 | 0 | 1 | 1 | 0 | 0 | 0 | 1 | 0 | 0 | 0 | 3 |  |
| CC(C)(C)NCC(O)COc1cccc2c1CC(O)C(O)C2 (stereo not drawn) [NADOLOL] | 0 | 0 | 0 | 0 | 0 | 0 | 0 | 0 | 0 | 0 | 0 | 0 | 0 | 0 |  |
| CN(C/C=C/c1ccccc1)Cc1cccc2ccccc12 [NAFTIFINE] |  |  |  |  |  |  |  |  |  |  |  |  |  |  | HepSE_bilirubinemia (Hepatotoxicity [1]; Liver): 0; HepSE_cholecystitis (Hepatotoxicity [2]; Liver): 0; HepSE_cholelithiasis (Hepatotoxicity [3]; Liver): 0; HepSE_cirrhosis (Hepatotoxicity [4]; Liver): 0; HepSE_elevated liver function tests (Hepatotoxicity [5]; Liver): 0; HepSE_hepatic failure (Hepatotoxicity [6]; Liver): 0; HepSE_hepatic necrosis (Hepatotoxicity [7]; Liver): 0; HepSE_hepatitis (Hepatotoxicity [8]; Liver): 0; HepSE_hepatomegaly (Hepatotoxicity [9]; Liver): 0; HepSE_jaundice (Hepatotoxicity [10]; Liver): 0; HepSE_liver disease (Hepatotoxicity [11]; Liver): 0; HepSE_liver fatty (Hepatotoxicity [12]; Liver): 0; HepSE_liver function tests abnormal (Hepatotoxicity [13]; Liver): 0; HepSE_Combined Scores (Hepatotoxicity [14]; Liver): 0 |
| Oc1ccc2c3c1O[C@H]1[C@@H](O)CC[C@@]4(O)[C@@H](C2)N(CC2CCC2)CC[C@]314 [NALBUPHINE] | 0 | 0 | 0 | 0 | 0 | 0 | 0 | 0 | 0 | 0 | 0 | 0 | 0 | 0 |  |
| CCn1cc(C(=O)O)c(=O)c2ccc(C)nc21 [NALIDIXIC ACID] | 0 | 0 | 0 | 0 | 0 | 0 | 0 | 0 | 0 | 0 | 0 | 0 | 0 | 0 |  |
| C=CCN1CC[C@]23c4c5ccc(O)c4O[C@H]2C(=O)CC[C@@]3(O)[C@H]1C5 [NALOXONE] | 0 | 0 | 0 | 0 | 0 | 0 | 0 | 0 | 0 | 0 | 0 | 0 | 0 | 0 |  |
| O=C1CC[C@@]2(O)[C@H]3Cc4ccc(O)c5c4[C@@]2(CCN3CC2CC2)[C@H]1O5 [NALTREXONE] | 0 | 0 | 1 | 0 | 0 | 0 | 0 | 1 | 0 | 0 | 0 | 0 | 0 | 2 |  |
| C[C@]12CC[C@H]3[C@@H](CCC4=CC(=O)CC[C@@H]43)[C@@H]1CC[C@@H]2O [NANDROLONE] | 0 | 0 | 0 | 0 | 0 | 0 | 0 | 0 | 0 | 0 | 0 | 0 | 0 | 0 |  |
| c1ccc2c(CC3=NCCN3)cccc2c1 [NAPHAZOLINE] | 0 | 0 | 0 | 0 | 0 | 0 | 0 | 0 | 0 | 0 | 0 | 0 | 0 | 0 |  |
| CC(C)[C@H]1CC[C@H](C(=O)N[C@H](Cc2ccccc2)C(=O)O)CC1 [NATEGLINIDE] | 0 | 0 | 0 | 0 | 0 | 0 | 0 | 1 | 0 | 1 | 1 | 0 | 0 | 3 |  |
